From ChEMBL document CHEMBL4196044, “Design, synthesis and ability of non-gold complexed substituted purine derivatives to inhibit LPS-induced inflammatory response” (Eur J Med Chem, 2018)
Activity calls are given as the source filed them. The rule behind the calls is not given here.

Columns and labels:
[1] = Cytotoxicity against human THP1 cells assessed as cell viability at 10 uM by CellTiter-Glo luminescent assay relative to control; format: cell-based; conditions: THP-1 cells, read-out: Activity
RAW264.7 [2] = assay: Anti-inflammatory activity in mouse RAW264.7 cells assessed as inhibition of LPS-induced TNF-alpha production at 10 uM pretreated for 2 hrs followed by LPS stimulation measured after over night incubation by ELISA relative to control; format: functional
RAW264.7 [3] = assay: Anti-inflammatory activity in mouse RAW264.7 cells assessed as inhibition of LPS-induced IL-1beta production at 10 uM pretreated for 2 hrs followed by LPS stimulation measured after over night incubation by ELISA relative to control; format: functional
RAW264.7 [4] = assay: Anti-inflammatory activity in mouse RAW264.7 cells assessed as inhibition of LPS-induced TNF-alpha production pretreated for 2 hrs followed by LPS stimulation measured after over night incubation by ELISA; format: functional, cell-based
RAW264.7 [5] = assay: Anti-inflammatory activity in mouse RAW264.7 cells assessed as inhibition of LPS-induced IL-1beta production pretreated for 2 hrs followed by LPS stimulation measured after over night incubation by ELISA; format: functional, cell-based
RAW264.7 [6] = assay: Anti-inflammatory activity in mouse RAW264.7 cells assessed as inhibition of LPS-induced IL-6 production pretreated for 2 hrs followed by LPS stimulation measured after over night incubation by ELISA; format: functional, cell-based
RAW264.7 [7] = assay: Anti-inflammatory activity in mouse RAW264.7 cells assessed as inhibition of LPS-induced PGE2 production pretreated for 2 hrs followed by LPS stimulation measured after over night incubation by ELISA; format: functional, cell-based
RAW264.7 [8] = assay: Anti-inflammatory activity in mouse RAW264.7 cells assessed as inhibition of LPS-induced NO release pretreated for 2 hrs followed by LPS stimulation measured after 48 hrs […]; format: functional, cell-based
RAW264.7 [9] = assay: Anti-inflammatory activity in mouse RAW264.7 cells assessed as inhibition of LPS-induced COX-2 mRNA expression at 10 uM after 24 hrs by RT-qPCR analysis; format: functional, cell-based
RAW264.7 [10] = assay: Anti-inflammatory activity in mouse RAW264.7 cells assessed as inhibition of LPS-induced iNOS mRNA expression at 10 uM after 24 hrs by RT-qPCR analysis; format: functional, cell-based
RAW264.7 [11] = assay: Inhibition of LPS-induced ERK phosphorylation in mouse RAW264.7 cells at 10 uM measured after 24 hrs by Western blot method; format: cell-based
[12] = molecular target: MAP kinase p38 (Mus musculus) (UniProt P47811+O08911+Q9WUI1+Q9Z1B7); assay: Inhibition of LPS-induced p38 phosphorylation in mouse RAW264.7 cells at 10 uM measured after 24 hrs by Western blot method; format: cell-based
RAW264.7 [13] = assay: Inhibition of LPS-induced JNK phosphorylation in mouse RAW264.7 cells at 10 uM measured after 24 hrs by Western blot method; format: cell-based
[14] = molecular target: T1, NF-kappa-B inhibitor alpha (Mus musculus) (UniProt Q9Z1E3); assay: Inhibition of LPS-induced IkappaBalpha phosphorylation in mouse RAW264.7 cells at 10 uM measured after 24 hrs by Western blot method; format: cell-based
T1 sequence (whole entry): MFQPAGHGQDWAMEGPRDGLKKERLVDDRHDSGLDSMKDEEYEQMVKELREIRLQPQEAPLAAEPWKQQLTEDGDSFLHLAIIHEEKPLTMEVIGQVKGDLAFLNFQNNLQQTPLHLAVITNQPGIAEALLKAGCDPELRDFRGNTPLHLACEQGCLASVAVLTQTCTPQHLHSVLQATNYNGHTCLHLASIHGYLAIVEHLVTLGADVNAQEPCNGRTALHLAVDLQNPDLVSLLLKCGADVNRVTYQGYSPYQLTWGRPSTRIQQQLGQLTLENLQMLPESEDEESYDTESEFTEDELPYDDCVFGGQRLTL

[15] = molecular target: Transcription factor p65 (Mus musculus) (UniProt Q04207); assay: Inhibition of LPS-induced NF-kappaB-p65 nuclear translocation in mouse RAW264.7 cells at 10 uM by DAPI staining-based immunofluorescence analysis; format: cell-based
Mus musculus [16] = assay: Anti-inflammatory activity in ICR mouse assessed as inhibition of carrageenan-induced hind paw edema volume at 10 mg/kg administered via gavage treated for 30 mins post carrageenan challenge measured after 2 to 3 hrs; format: functional, organism-based
Mus musculus [17] = assay: Anti-inflammatory activity in ICR mouse assessed as inhibition of carrageenan-induced hind paw edema volume at 10 mg/kg administered via gavage treated for 30 mins post carrageenan challenge measured after 2 to 5 hrs; format: functional, organism-based
Mus musculus [18] = assay: Anti-inflammatory activity in ICR mouse assessed as inhibition of carrageenan-induced hind paw edema volume at 10 mg/kg administered via gavage treated for 30 mins post carrageenan challenge measured after 3 to 5 hrs; format: functional, organism-based

Sequence of Transcription factor p65 (Mus musculus) (Q04207 whole entry): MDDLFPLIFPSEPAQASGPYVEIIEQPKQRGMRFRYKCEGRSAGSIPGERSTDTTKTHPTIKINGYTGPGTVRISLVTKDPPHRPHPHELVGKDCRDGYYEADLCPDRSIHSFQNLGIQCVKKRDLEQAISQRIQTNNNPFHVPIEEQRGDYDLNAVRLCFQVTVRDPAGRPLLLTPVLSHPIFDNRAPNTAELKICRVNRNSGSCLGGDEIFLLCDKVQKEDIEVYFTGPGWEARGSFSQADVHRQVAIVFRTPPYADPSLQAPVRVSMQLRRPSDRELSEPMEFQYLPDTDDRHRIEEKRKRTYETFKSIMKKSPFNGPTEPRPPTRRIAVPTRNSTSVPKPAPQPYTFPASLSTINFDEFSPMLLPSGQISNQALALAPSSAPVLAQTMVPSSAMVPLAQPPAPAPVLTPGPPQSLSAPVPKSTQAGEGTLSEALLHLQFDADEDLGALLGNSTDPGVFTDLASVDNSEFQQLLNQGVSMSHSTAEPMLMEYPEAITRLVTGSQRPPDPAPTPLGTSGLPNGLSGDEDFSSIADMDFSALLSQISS

Compound Clc1ccccc1CNc1ncnc2nc[nH]c12 has a viability at 10 µM [1] of 93.8%.

In the case of Clc1ccccc1CNc1[nH]cnc2ncnc1-2, the inhibition at 10 µM (RAW264.7 [2]) is reported as 86.2%, the inhibition at 10 µM (RAW264.7 [3]) is reported as 89% and the inhibition (RAW264.7 [4]) is reported as “Dose-dependent effect”. The inhibition (RAW264.7 [5]) was “Dose-dependent effect”, the inhibition (RAW264.7 [6]) was “Dose-dependent effect” and the inhibition (RAW264.7 [7]) was “Dose-dependent effect”. For the same compound, the IC50 (RAW264.7 [8]) was 3.54 µM, the inhibition (RAW264.7 [9]) was “Active” and the inhibition (RAW264.7 [10]) was “Active”. The inhibition (RAW264.7 [11]) was “Active”, the inhibition [12] was “Active” and the inhibition (RAW264.7 [13]) was “Active”. For the same compound, the inhibition [14] was “Active”, the inhibition [15] was “Active” and the inhibition (Mus musculus [16]) was “Active”. For the same compound, the inhibition (Mus musculus [17]) was “Active”.

Work on Fc1cc(Nc2ncnc3[nH]cnc23)ccc1Cl yielded a viability at 10 µM [1] of 99.3%, an inhibition at 10 µM (RAW264.7 [2]) of 71% and an inhibition at 10 µM (RAW264.7 [3]) of 84.2%. For the same compound, the inhibition (RAW264.7 [4]) was “Dose-dependent effect”, the inhibition (RAW264.7 [5]) was “Dose-dependent effect” and the inhibition (RAW264.7 [6]) was “Dose-dependent effect”. The inhibition (RAW264.7 [7]) was “Dose-dependent effect”, the IC50 (RAW264.7 [8]) was 4.43 µM and the inhibition (RAW264.7 [9]) was “Active”. The inhibition (RAW264.7 [10]) was “Active”, the inhibition (RAW264.7 [11]) was “Active” and the inhibition [12] was “Active”. For the same compound, the inhibition (RAW264.7 [13]) was “Active”, the inhibition [14] was “Active” and the inhibition [15] was “Active”. The inhibition (Mus musculus [16]) was “Active” and the inhibition (Mus musculus [18]) was “Active”.

c1coc(CNc2ncnc3[nH]cnc23)c1 [KINETIN] gave a viability at 10 µM [1] of 107%, an inhibition at 10 µM (RAW264.7 [2]) of 45.9% and an inhibition at 10 µM (RAW264.7 [3]) of -19.5%.

Work on COc1ccc(Nc2ncnc3[nH]cnc23)cc1 yielded a viability at 10 µM [1] of 100%, an inhibition at 10 µM (RAW264.7 [2]) of 25.6% and an inhibition at 10 µM (RAW264.7 [3]) of 7.29%.

In the case of COc1cc(Cn2cnc3c(NCc4ccccc4Cl)ncnc32)cc(OC)c1, the viability at 10 µM [1] is reported as 90.2%, the inhibition at 10 µM (RAW264.7 [2]) is reported as 9.65% and the inhibition at 10 µM (RAW264.7 [3]) is reported as 19.8%.

With Fc1ccc(CNc2ncnc3nc[nH]c23)cc1 the viability at 10 µM [1] was 92.9%, the inhibition at 10 µM (RAW264.7 [2]) was 22.4% and the inhibition at 10 µM (RAW264.7 [3]) was 14.6%.

Compound Clc1ccc(Nc2ncnc3[nH]cnc23)cc1 has a viability at 10 µM [1] of 92%, an inhibition at 10 µM (RAW264.7 [2]) of 16.1% and an inhibition at 10 µM (RAW264.7 [3]) of 28.6%.

With c1nc2nc[nH]c(N3CCCC3)c-2n1 the viability at 10 µM [1] was 91.1%, the inhibition at 10 µM (RAW264.7 [2]) was 11.7% and the inhibition at 10 µM (RAW264.7 [3]) was -9.43%.

Work on COc1cccc(Nc2ncnc3[nH]cnc23)c1 yielded a viability at 10 µM [1] of 90.7%, an inhibition at 10 µM (RAW264.7 [2]) of 69.8% and an inhibition at 10 µM (RAW264.7 [3]) of 88.9%. For the same compound, the inhibition (RAW264.7 [4]) was “Dose-dependent effect”, the inhibition (RAW264.7 [5]) was “Dose-dependent effect” and the inhibition (RAW264.7 [6]) was “Dose-dependent effect”. The inhibition (RAW264.7 [7]) was “Dose-dependent effect”, the IC50 (RAW264.7 [8]) was 3.38 µM and the inhibition (RAW264.7 [9]) was “Active”. For the same compound, the inhibition (RAW264.7 [10]) was “Active”, the inhibition (RAW264.7 [11]) was “Active” and the inhibition [12] was “Active”. The inhibition (RAW264.7 [13]) was “Active”, the inhibition [14] was “Active” and the inhibition [15] was “Active”. The inhibition (Mus musculus [16]) was “Active”.

In the case of Oc1ccc(Nc2ncnc3[nH]cnc23)cc1, the viability at 10 µM [1] is reported as 95.9%, the inhibition at 10 µM (RAW264.7 [2]) is reported as 18.5% and the inhibition at 10 µM (RAW264.7 [3]) is reported as 12.4%.

With CCCn1cnc2c(NCc3ccccc3Cl)ncnc21 the viability at 10 µM [1] was 103%, the inhibition at 10 µM (RAW264.7 [2]) was 22.4% and the inhibition at 10 µM (RAW264.7 [3]) was 14.1%.

CC(=O)NS(=O)(=O)c1ccc(Nc2ncnc3[nH]cnc23)cc1 showed a viability at 10 µM [1] of 90.7%, an inhibition at 10 µM (RAW264.7 [2]) of 12.4% and an inhibition at 10 µM (RAW264.7 [3]) of 16.1%.

With Clc1cccc(Nc2ncnc3[nH]cnc23)c1 the viability at 10 µM [1] was 91%, the inhibition at 10 µM (RAW264.7 [2]) was 18.5% and the inhibition at 10 µM (RAW264.7 [3]) was 12.2%.
